For one assay, the target named is T1, Tec (Homo sapiens, UniProt P42680).
T1 sequence (P42680 1-631): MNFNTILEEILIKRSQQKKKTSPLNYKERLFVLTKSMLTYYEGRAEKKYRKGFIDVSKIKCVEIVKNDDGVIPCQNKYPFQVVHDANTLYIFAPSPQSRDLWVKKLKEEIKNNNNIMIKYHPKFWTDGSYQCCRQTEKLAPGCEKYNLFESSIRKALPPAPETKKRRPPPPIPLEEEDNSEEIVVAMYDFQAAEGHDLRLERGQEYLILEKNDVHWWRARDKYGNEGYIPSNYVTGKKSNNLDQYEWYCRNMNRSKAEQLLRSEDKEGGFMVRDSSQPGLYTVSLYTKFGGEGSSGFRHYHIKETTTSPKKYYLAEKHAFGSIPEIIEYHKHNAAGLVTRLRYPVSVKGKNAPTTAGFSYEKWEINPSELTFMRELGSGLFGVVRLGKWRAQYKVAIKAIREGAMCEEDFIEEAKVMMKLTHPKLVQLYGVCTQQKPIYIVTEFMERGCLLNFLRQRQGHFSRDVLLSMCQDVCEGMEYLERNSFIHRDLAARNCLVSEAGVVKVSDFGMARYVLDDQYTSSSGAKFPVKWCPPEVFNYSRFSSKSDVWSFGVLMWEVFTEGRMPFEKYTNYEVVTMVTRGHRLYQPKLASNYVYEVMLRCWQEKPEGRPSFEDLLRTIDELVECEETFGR
The experiment in a line: Biochemical kinase selectivity: IC50 determination of Tec. The settings on record: for IC50: TR-FRET, 280 μM ATP; for Fold of Tec/Btk: ratio of IC50 values. A general note: In TR-FRET formats the signal depends on donor and acceptor labels being close together.

Assay [1] has as its target T2, Btk kinase (aa2-659, Carna Biosciences) (Homo sapiens, UniProt Q06187).
T2 construct: purchased Carna Biosciences
The assay can be described thus: Btk kinase enzymatic assay (TR-FRET). The format is biochemical. The settings on record: for IC50: TR-FRET, 30 μM ATP, compound incubated with kinase 60 minutes.

T2 sequence (Q06187 2-659): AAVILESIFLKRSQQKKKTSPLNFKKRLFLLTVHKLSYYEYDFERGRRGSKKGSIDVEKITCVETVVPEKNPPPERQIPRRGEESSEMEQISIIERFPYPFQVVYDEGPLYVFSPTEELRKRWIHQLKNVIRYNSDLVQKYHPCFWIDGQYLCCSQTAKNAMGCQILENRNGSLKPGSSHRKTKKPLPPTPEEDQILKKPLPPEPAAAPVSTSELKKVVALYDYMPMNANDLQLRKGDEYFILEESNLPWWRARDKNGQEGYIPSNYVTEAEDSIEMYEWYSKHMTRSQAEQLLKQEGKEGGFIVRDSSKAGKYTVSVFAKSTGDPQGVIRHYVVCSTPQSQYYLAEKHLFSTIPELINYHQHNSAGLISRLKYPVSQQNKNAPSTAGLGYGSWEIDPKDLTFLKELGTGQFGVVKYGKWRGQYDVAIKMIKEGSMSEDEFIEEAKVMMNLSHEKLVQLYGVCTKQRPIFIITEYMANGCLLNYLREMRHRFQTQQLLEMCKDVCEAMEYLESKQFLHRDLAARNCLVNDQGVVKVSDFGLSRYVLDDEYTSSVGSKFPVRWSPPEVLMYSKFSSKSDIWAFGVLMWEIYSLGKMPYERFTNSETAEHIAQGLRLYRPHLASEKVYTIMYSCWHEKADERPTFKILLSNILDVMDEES

With `C=CC(=O)N1CCC(C2CCNc3c(C(N)=O)c(-c4ccccc4)nn32)CC1` (stereo not shown) [Example 144, reference compound], at Tec, the midpoint of inhibition, the IC50, lay at 491 nM and the “Fold of Tec/Btk” value amounted to 3.5 fold.

Compound `C=CC(=O)N1CCC(C2CCNc3c(C(N)=O)c(-c4cc(OC)cc(OC)c4)nn32)CC1` (stereo not shown) [Example A9, 7-(1-acryloylpiperidin-4-yl)-2-(3,5-dimethoxyphenyl)-4,5,6,7-tetrahydropyrazolo[1,5-a]pyrimidine-3-carboxamide] displayed an IC50 in assay [1] of 41 nM.

`C=CC(=O)N1CCC(C2CCNc3c(C(N)=O)c(-c4cc(OC)c(-c5ccccc5)c(OC)c4)nn32)CC1` (stereo not shown) [Example A10, 7-(1-acryloylpiperidin-4-yl)-2-(2,6-dimethoxy-[1,1′-biphenyl]-4-yl)-4,5,6,7-tetrahydropyrazolo[1,5-a]pyrimidine-3-carboxamide] had a concentration for half-maximal inhibition (IC50) in assay [1] of 51 nM.

Consider `C=CC(=O)N1CCC(C2CCNc3c(C(N)=O)c(-c4cc(OCC)c(C)c(OCC)c4)nn32)CC1` (stereo not shown) [Example A13, 7-(1-acryloylpiperidin-4-yl)-2-(3,5-diethoxy-4-methylphenyl)-4,5,6,7-tetrahydropyrazolo[1,5-a]pyrimidine-3-carboxamide], for which the IC50 in assay [1] was more than 100 nM.

`C=CC(=O)N1CCC(C2CCNc3c(C(N)=O)c(-c4cc(OC)c(OC)c(OC)c4)nn32)CC1` (stereo not shown) [Example A14, 7-(1-acryloylpiperidin-4-yl)-2-(3,4,5-trimethoxyphenyl)-4,5,6,7-tetrahydropyrazolo[1,5-a]pyrimidine-3-carboxamide] yielded a half-maximal inhibitory concentration (IC50) at Tec of more than 1000 nM.

On to `C=CC(=O)N1CCC(C2CCNc3c(C(N)=O)c(-c4cc(Cl)c(OC)c(Cl)c4)nn32)CC1` (stereo not shown) [Example A15, 7-(1-acryloylpiperidin-4-yl)-2-(3,5-dichloro-4-methoxyphenyl)-4,5,6,7-tetrahydropyrazolo[1,5-a]pyrimidine-3-carboxamide], for which, in assay [1], the “affinity / inhibitory activity for Btk (in words)” value is listed as “poor affinity for Btk” and 20 nM corresponded to half-maximal inhibition (IC50). Besides, on Tec, the IC50 is 1000 nM and the “Fold of Tec/Btk” value came out at 50 fold.

In assay [1], `C=CC(=O)N1CCC(C2CCNc3c(C(N)=O)c(-c4cc(Cl)c(C5CC5)c(Cl)c4)nn32)CC1` (stereo not shown) [Example A24, 7-(1-acryloylpiperidin-4-yl)-2-(3,5-dichloro-4-cyclopropylphenyl)-4,5,6,7-tetrahydropyrazolo[1,5-a]pyrimidine-3-carboxamide] had an IC50 of 28 nM.

`C=CC(=O)N1CCC(C2CCNc3c(C(N)=O)c(-c4cc(Cl)c(Br)c(OC(F)(F)F)c4)nn32)CC1` (stereo not shown) [Example A26, 7-(1-acryloylpiperidin-4-yl)-2-(4-bromo-3-chloro-5-(trifluoromethoxy)phenyl)-4,5,6,7-tetrahydropyrazolo[1,5-a]pyrimidine-3-carboxamide]: the half-maximal inhibitory concentration (IC50) in assay [1] was determined as 41 nM.

As for `C=CC(=O)N1CCC(C2CCNc3c(C(N)=O)c(-c4cc(OC)c(-c5cc[nH]n5)c(OC)c4)nn32)CC1` (stereo not shown) [Example A27, 7-(1-acryloylpiperidin-4-yl)-2-(3,5-dimethoxy-4-(1H-pyrazol-3-yl)phenyl)-4,5,6,7-tetrahydropyrazolo[1,5-a]pyrimidine-3-carboxamide], the concentration for half-maximal inhibition (IC50) in assay [1] is 18 nM; against Tec it was more than 1000 nM.

Consider `C=CC(=O)N1CCC(C2CCNc3c(C(N)=O)c(-c4cc(OC)c(-c5ccsc5)c(OC)c4)nn32)CC1` (stereo not shown) [Example A28, 7-(1-acryloylpiperidin-4-yl)-2-(3,5-dimethoxy-4-(thiophen-3-yl)phenyl)-4,5,6,7-tetrahydropyrazolo[1,5-a]pyrimidine-3-carboxamide], for which, in assay [1], inhibition was half-maximal at 16 nM (IC50). Besides, on Tec, half-maximal inhibition (IC50) was put at 369 nM and the “Fold of Tec/Btk” value is on record as 23 fold.

For the compound `C=CC(=O)N1CCC(C2CCNc3c(C(N)=O)c(-c4cc(C)c(C5CC5)c(C)c4)nn32)CC1` (stereo not shown) [Example A29, 7-(1-acryloylpiperidin-4-yl)-2-(4-cyclopropyl-3,5-dimethylphenyl)-4,5,6,7-tetrahydropyrazolo[1,5-a]pyrimidine-3-carboxamide], the concentration for half-maximal inhibition (IC50) is 16 nM in assay [1] and more than 1000 nM against Tec.

Turning to `C=CC(=O)N1CCC(C2CCNc3c(C(N)=O)c(-c4cc(C)cc(C)c4)nn32)CC1` (stereo not shown) [Example A30, 7-(1-acryloylpiperidin-4-yl)-2-(3,5-dimethylphenyl)-4,5,6,7-tetrahydropyrazolo[1,5-a]pyrimidine-3-carboxamide], the IC50 was 53 nM in assay [1] and more than 1000 nM at Tec.

In turn, `C=CC(=O)N1CCC(C2CCNc3c(C(N)=O)c(-c4cc(OC)c(-c5c(C)noc5C)c(OC)c4)nn32)CC1` (stereo not shown) [Example A31, 7-(1-acryloylpiperidin-4-yl)-2-(4-(3,5-dimethylisoxazol-4-yl)-3-dimethoxyphenyl)-4,5,6,7-tetrahydropyrazolo[1,5-a]pyrimidine-3-carboxamide] came in with a 50% inhibitory concentration (IC50) in assay [1] of more than 100 nM.

In assay [1], `C=CC(=O)N1CCC(C2CCNc3c(C(N)=O)c(-c4cc(OC)c(C5CCOCC5)c(OC)c4)nn32)CC1` (stereo not shown) [Example A32, 7-(1-acryloylpiperidin-4-yl)-2-(3,5-dimethoxy-4-(tetrahydro-2H-pyran-4-yl)phenyl)-4,5,6,7-tetrahydropyrazolo[1,5-a]pyrimidine-3-carboxamide] showed an IC50 of 52 nM.

For `C=CC(=O)N1CCC(C2CCNc3c(C(N)=O)c(-c4cc(OC)c(C5=CCCCC5)c(OC)c4)nn32)CC1` (stereo not shown) [Example A40, 7-(1-acryloylpiperidin-4-yl)-2-(2,6-dimethoxy-2′,3′,4′,5′-tetrahydro-[1,1′-biphenyl]-4-yl)-4,5,6,7-tetrahydropyrazolo[1,5-a]pyrimidine-3-carboxamide], the results for the IC50 (in assay [1]; against Tec) were 11 nM and 253 nM, respectively. Also, the “Fold of Tec/Btk” value at Tec is listed as 23 fold.

`C=CC(=O)N1CCC(C2CCNc3c(C(N)=O)c(-c4cc(Cl)c(C5CC5)c(OCC)c4)nn32)CC1` (stereo not shown) [Example A48, 7-(1-acryloylpiperidin-4-yl)-2-(3-chloro-4-cyclopropyl-5-ethoxyphenyl)-4,5,6,7-tetrahydropyrazolo[1,5-a]pyrimidine-3-carboxamide] displayed a half-maximal inhibitory concentration (IC50) in assay [1] of 16 nM.

Regarding `C=CC(=O)N1CCC(C2CCNc3c(C(N)=O)c(-c4cc(Cl)c(C)c(OCC)c4)nn32)CC1` (stereo not shown) [Example A49, 7-(1-acryloylpiperidin-4-yl)-2-(3-chloro-5-ethoxy-4-methylphenyl)-4,5,6,7-tetrahydropyrazolo[1,5-a]pyrimidine-3-carboxamide], 18 nM corresponded to half-maximal inhibition in assay [1] (IC50).

Compound `C=CC(=O)N1CCC(C2CCNc3c(C(N)=O)c(-c4cc(OC)c(C=C)c(OC)c4)nn32)CC1` (stereo not shown) [Example A51, 7-(1-acryloylpiperidin-4-yl)-2-(3,5-dimethoxy-4-vinylphenyl)-4,5,6,7-tetrahydropyrazolo[1,5-a]pyrimidine-3-carboxamide] returned a half-inhibitory concentration (IC50) against Tec of 136 nM.

On to `C=CC(=O)N1CC(C2CCNc3c(C(N)=O)c(-c4cc(Cl)c(C)c(Cl)c4)nn32)C1` (stereo not shown) [Example B1, 7-(1-acryloylazetidin-3-yl)-2-(3,5-dichloro-4-methylphenyl)-4,5,6,7-tetrahydropyrazolo[1,5-a]pyrimidine-3-carboxamide], for which half-maximal inhibition in assay [1] (IC50) was put at 13 nM.

On to `C=CC(=O)N1CC2CNc3c(C(N)=O)c(-c4cc(OC)c(OC)c(OC)c4)nn3C2C1` (stereo not shown) [Example C2, 7-acryloyl-2-(3,4,5-trimethoxyphenyl)-5,5a,6,7,8,8a-hexahydro-4H-pyrazolo[1,5-a]pyrrolo[3,4-e]pyrimidine-3-carboxamide], for which, in assay [1], the IC50 stood at 34 nM.

For `C=CC(=O)N1CCC2C(CNc3c(C(N)=O)c(-c4cc(OC)c(C)c(OC)c4)nn32)C1` (stereo not shown) [Example D1, 7-acryloyl-2-(3,5-dimethoxy-4-methylphenyl)-4,5,5a,6,7,8,9,9a-octahydropyrazolo[1,5-a]pyrido[3,4-e]pyrimidine-3-carboxamide], inhibition in assay [1] was half-maximal at 10 nM (IC50).

In assay [1], `C=CC(=O)NCC1CCNc2c(C(N)=O)c(-c3cc(OC)c(C)c(OC)c3)nn21` (stereo not shown) [Example E1, 7-(acrylamidomethyl)-2-(3,5-dimethoxy-4-methylphenyl)-4,5,6,7-tetrahydropyrazolo[1,5-a]pyrimidine-3-carboxamide] displayed an IC50 of 33 nM.

`C=CC(=O)N1CCC2(CC1)CC(C1CCNc3c(C(N)=O)c(-c4cc(OC)c(C)c(OC)c4)nn31)C2` (stereo not shown) [Example F1, 7-(7-acryloyl-7-azaspiro[3.5]nonan-2-yl)-2-(3,5-dimethoxy-4-methylphenyl)-4,5,6,7-tetrahydropyrazolo[1,5-a]pyrimidine-3-carboxamide] registered a half-inhibitory concentration (IC50) in assay [1] of more than 100 nM.

`C=CC(=O)N1CC2CCC(C1)C2C1CCNc2c(C(N)=O)c(-c3cc(OC)c(C)c(OC)c3)nn21` (stereo not shown) [Example G1, 7-(3-acryloyl-3-azabicyclo[3.2.1]octan-8-yl)-2-(3,5-dimethoxy-4-methylphenyl)-4,5,6,7-tetrahydropyrazolo[1,5-a]pyrimidine-3-carboxamide]: in assay [1], half-maximal inhibition (IC50) required 12 nM.

In turn, `C=CC(=O)N1CC2(CC(C3CCNc4c(C(N)=O)c(-c5cc(OC)c(C)c(OC)c5)nn43)C2)C1` (stereo not shown) [Example H1, 7-(2-acryloyl-2-azaspiro[3.3]heptan-6-yl)-2-(3,5-dimethoxy-4-methylphenyl)-4,5,6,7-tetrahydropyrazolo[1,5-a]pyrimidine-3-carboxamide] gave a half-inhibitory concentration (IC50) in assay [1] of 35 nM.

On to `C=CC(=O)N1CCC(C2CCNc3c(C(N)=O)c(-c4ccc(Cl)cc4)nn32)CC1` (stereo not shown) [reference compound], for which half-maximal inhibition in assay [1] (IC50) required 22 nM.

A word on the IC50: it is the midpoint of a concentration-inhibition curve. A low value points to inhibition by little substance.

These data come from patent US20220298163A1, “BTK INHIBITORS WITH IMPROVED DUAL SELECTIVITY” (BEIGENE, LTD., priority 2017, published 2022).
